This is an account of results in patent US20100197789A1, “ANTI-OBESITY AGENT AND USE THEREOF” (National University Corporation Nagoya University, priority 2006, published 2010).

Structures are written as SMILES.

Holding throughout (assay type): in vivo, mouse
The subject of one experiment is db/^+m mice. Briefly: Food intake amount and body weight, 5 week-continuous oral administration, non-obese db/+m mice. The note with it: SKF97541 10×10^−6 M, 3-APPA 100×10^−6 M in drinking water. The protocol:
5 week-old male C57BL/KsJ-db/^+m mice (db/^+m mice: body weight 19 to 23 g, Japan SLC, Inc.) were purchased and individually fed in tip cages. To the db/^+m mice, normal pellet diet (CE-2) was administered under free water intake and free food intake. A body weight and a food intake amount over 24 hours were measured every day from the start of feeding. On day 3 after the start of feeding, blood was taken from an orbit after 6 hour-fasting and a blood glucose level and a blood insulin concentration were measured. The db/^+m mice were divided into two groups (10 mice per each group) so that a body weight, a 24 hour-food intake amount, a blood glucose level, and a blood insulin concentration were equal, and defined to be a control group and a baclofen treated group. After division into the groups, from day 5 after the start of feeding, (±)-baclofen was dissolved in drinking water and 5 week-continuous oral administration was started in the baclofen treated group. (±)-baclofen was dissolved in drinking water at a concentration of 2.7 mg/dl used in the high concentration treated group in the experiment of db/db mice. A food intake amount and a body weight of the db/^+m mice were measured over time, and a rectal temperature was measured 5 weeks after the start of the administration. Blood was taken after the 5-week administration of (±)-baclofen, and the db/^+m mice were sacrificed by cervical luxation.
5 week-old male C57BL/KsJ-db/db mice (db/db mice: body weight 19 to 25 g, Japan SLC, Inc.) were purchased and individually fed in tip cages. Normal pellet diet (CE-2) was administered to the db/db mice under free water intake and free food intake. A body weight and a food intake amount over 24 hours were measured every day from the start of feeding. On day 3 after the start of feeding, blood was taken from an orbit after 6 hour-fasting and a blood glucose level and a blood insulin concentration were measured. The db/db mice were divided into three groups (10 mice per each group) so that a body weight, a 24 hour-food intake amount, a blood glucose level, and a blood insulin concentration were equal and defined to be a control group, an SKF97541 treated group and a 3-APPA treated group. SKF97541 and 3-APPA were dissolved in drinking water at respective concentrations of 10×10^−6 M and 100×10^−6 M, and continuously orally administered for 5 weeks, and a food intake amount and a body weight were measured over time during the administration period. SKF97541 (10×10^−6 M) or 3-APPA (100×10^−6M) was dissolved in drinking water and orally administered also to db/^+m mice, and a food intake amount and a body weight were measured over time in the same manner.

Experiment [1] has as its system DIO mice. The experiment in a line: Food intake amount and body weight, 5 week-continuous oral administration, diet-induced obese (DIO) mice. The note with it: (±)-baclofen 5 mg/kg/day, SKF97541 0.3 mg/kg/day, 3-APPA 5 mg/kg/day; for body weight increase / food intake amount: DIO mice (high fat diet), oral in drinking water 5 weeks; for time after start of administration from which body weight increase suppression was significant / time after start of administration from which food intake suppression was significant: DIO mice, continued until 5 weeks. The protocol:
(§1) 5 week-old male C57BL/6N mice (body weight 17 to 20 g, CLEA Japan, Inc.) were purchased and individually fed in tip cages. To the mice, normal pellet diet (CE-2) was administered under free water intake and free food intake. A body weight and a food intake amount over 24 hours were measured every day from the start of feeding. On day 3 after the start of feeding, blood was taken from an orbit after 6 hour-fasting and a blood glucose level and a blood insulin concentration were measured. The mice were divided into a control group and a baclofen treated group (10 mice per each group) so that a body weight, a 24 hour-food intake amount, a blood glucose level, and a blood insulin concentration were equal, and diet induced-obesity (DIO) was started to be induced by administration of high fat diet (High Fat Diet 32, energy fat ratio 60%, CLEA Japan, Inc.) (DIO mice). At the same time as the start of administering the high fat diet, (±)-baclofen was dissolved in drinking water and 5 week-continuous oral administration was started in a dosage of 5 mg per 1 kg of a body weight in 1 day (5 mg/kg/day). A food intake amount and a body weight were measured over time during the 5 week-administration period. (±)-baclofen (5 mg/kg/day) was orally administered also to C57BL/6N mice (lean mice) that are non-obese mice to which normal diet was administered in the same manner as described above, and a food intake amount and a body weight were measured over time.
(§2) 5 week-old male C57BL/6N mice (body weight 17 to 20 g, CLEA Japan, Inc.) were purchased and individually fed in tip cages. Normal pellet diet (CE-2) was administered to the mice under free water intake and free food intake. A body weight and a food intake amount over 24 hours were measured every day from the start of feeding. On day 3 after the start of feeding, blood was taken from an orbit after 6 hour-fasting and a blood glucose level and a blood insulin concentration were measured. The mice were divided into a control group, an SKF97541 treated group and a 3-APPA treated group (10 mice per each group) so that a body weight, a 24 hour-food intake amount, a blood glucose level, and a blood insulin concentration were equal, and diet induced-obesity (DIO) was started to be induced by administration of high fat diet (High Fat Diet 32, energy fat ratio 60%, CLEA Japan, Inc.) (DIO mice). At the same time as the start of administering the high fat diet, SKF97541 (0.3 mg/kg/day) or 3-APPA (5 mg/kg/day) was dissolved in drinking water and 5 week-continuous oral administration was started. A food intake amount and a body weight were measured over time during the 5 week-administration period. SKF97541 (0.3 mg/kg/day) or 3-APPA (5 mg/kg/day) was orally administered also to C57BL/6N mice (lean mice) to which normal diet was administered in the same manner as described above, and a food intake amount and a body weight were measured over time.

A further experiment relates to lean mice. The experiment in a line: Food intake amount and body weight, 5 week-continuous oral administration, non-obese lean mice. The note with it: lean mice (normal diet); oral 5 weeks; (±)-baclofen 5 mg/kg/day, SKF97541 0.3 mg/kg/day, 3-APPA 5 mg/kg/day. The protocol:
as §1, §2

Experiment [2] relates to DIO mice. Briefly: Fasting blood glucose, HbA1c, blood insulin, plasma leptin and adiponectin after 5-week administration, DIO mice. The note with it: (±)-baclofen 5, SKF97541 0.3, 3-APPA 5 mg/kg/day, vs control; for fasting blood glucose level / fasting blood insulin concentration: 6 hour-fasting after 5 weeks oral; for HbA1c value: after 5 weeks oral. The protocol:
The blood glucose level was measured by a glucose analyzer Antisense (HORIBA, Ltd.) promptly after taking blood from an orbit. HbA1c was measured by a glycohemoglobin analyzer HLC-723 GHbV (manufactured by TOSOH Corporation) after preserving blood at −80° C.
After taking blood from an orbit by using a hematocrit tube coated with heparin, blood was centrifuged at 3500 rpm at 4° C. for 15 minutes, and plasma was preserved at −80° C. The plasma concentrations of insulin, leptin and adiponectin were measured by the ELISA method (levis insulin kit (mouse): Shibayagi Co., Ltd., Morinaga Leptin assay kit: Morinaga Institute of Biological Science, Inc., Mouse/rat adiponectin ELISA kit: OTSUKA Pharmaceutical Co., Ltd.).
(±)-baclofen (5 mg/kg/day), SKF97541 (0.3 mg/kg/day) or 3-APPA (5 mg/kg/day) was orally administered to DIO mice for 5 weeks according to the above described method, and then blood was taken from an orbit after 6 hour-fasting and a blood glucose level, an HbA1c value and a blood insulin concentration were measured.
(±)-baclofen (5 mg/kg/day) was orally administered to DIO mice for 5 weeks according to the above described method, and then, blood was taken from an orbit after 6 hour-fasting, and a plasma leptin concentration and a plasma adiponectin concentration were measured. The DIO mice were sacrificed by cervical luxation after the end of the 5-week administration, and then epididymal white adipose tissues and subcutaneous white adipose tissues were surgically removed, and after measuring the weights, they were fixed in 4% formaldehyde. The epididymal white adipose tissues were cut out to prepare a section with a thickness of 8 μm and subjected to Hematoxylin-Eosin stain (H-E stain) and a form (size) of a fat cell was examined by using an image analysis system, Neurolucida (MicroBrightField Japan, Inc.).

The subject of a further experiment is db/db mice. Briefly: Food intake amount and body weight, 5 week-continuous oral administration in drinking water, db/db mice. The note with it: SKF97541 10×10^−6 M, 3-APPA 100×10^−6 M in drinking water; for time after start of administration from which body weight increase suppression was significant / time after start of administration from which cumulative food intake suppression was significant: continued until end of experiment; for body weight increase / cumulative food intake amount: oral, 5 weeks.

Take `NCCCP(=O)(O)O` [3-APPA, 3-aminopropylphosphonic acid]: in the experiment with db/^+m mice, the body weight entry is recorded as “did not give significant effects” and the food intake amount entry was “did not give significant effects”. Moreover, in the experiment on DIO mice [1], the body weight increase entry is “significantly suppressed”, the food intake amount result is given as “significantly suppressed”, the “time after start of administration from which body weight increase suppression was significant” value amounted to 1 week and the “time after start of administration from which food intake suppression was significant” value was 1 week. In the experiment on lean mice, the body weight entry was “did not give significant effects” and the food intake amount result is “did not give significant effects”. In the experiment on DIO mice [2], the “fasting blood glucose level” value was “significant decreases”, the “fasting blood insulin concentration” value is listed as “significant decreases” and the HbA1c value entry is “significant decreases”. Also, in the experiment on db/db mice, the “time after start of administration from which body weight increase suppression was significant” value is 1 week, the “time after start of administration from which cumulative food intake suppression was significant” value came to 1 weeks, the body weight increase result was “significantly suppressed” and the “cumulative food intake amount” value was “significantly suppressed”.
Turning to `CP(=O)(O)CCCN` [SKF97541, 3-aminopropyl-(methyl)phosphinic acid], in the experiment with db/^+m mice, the body weight result is given as “did not give significant effects” and the food intake amount result is given as “did not give significant effects”. In the experiment on DIO mice [1], the body weight increase entry is “significantly suppressed”, the food intake amount entry was “significantly suppressed”, the “time after start of administration from which body weight increase suppression was significant” value is given as 1 week and the “time after start of administration from which food intake suppression was significant” value came to 1 week. In the experiment with lean mice, the body weight result is reported as “did not give significant effects” and the food intake amount result was “did not give significant effects”. Besides, in the experiment on DIO mice [2], the “fasting blood glucose level” value is “significant decreases”, the “fasting blood insulin concentration” value is “significant decreases” and the HbA1c value entry is given as “significant decreases”. In addition, in the experiment with db/db mice, the “time after start of administration from which body weight increase suppression was significant” value turned out to be 1 week, the “time after start of administration from which cumulative food intake suppression was significant” value came to 2 weeks, the body weight increase entry is given as “significantly suppressed” and the “cumulative food intake amount” value is listed as “significantly suppressed”.
